The values below come from BindingDB's records for doi:10.1021/jm100809g (F. Hoffmann-La Roche, 2011).

The experiment deals with Carnitine O-palmitoyltransferase 1, liver isoform (Rattus norvegicus) (UniProt P32198). Kind of experiment: Maximal inhibition of rat CPT1A.

SMILES strings stand for the structures.

Carnitine O-palmitoyltransferase 1, liver isoform (Rattus norvegicus), sequence (P32198 whole entry, looked up, canonical isoform): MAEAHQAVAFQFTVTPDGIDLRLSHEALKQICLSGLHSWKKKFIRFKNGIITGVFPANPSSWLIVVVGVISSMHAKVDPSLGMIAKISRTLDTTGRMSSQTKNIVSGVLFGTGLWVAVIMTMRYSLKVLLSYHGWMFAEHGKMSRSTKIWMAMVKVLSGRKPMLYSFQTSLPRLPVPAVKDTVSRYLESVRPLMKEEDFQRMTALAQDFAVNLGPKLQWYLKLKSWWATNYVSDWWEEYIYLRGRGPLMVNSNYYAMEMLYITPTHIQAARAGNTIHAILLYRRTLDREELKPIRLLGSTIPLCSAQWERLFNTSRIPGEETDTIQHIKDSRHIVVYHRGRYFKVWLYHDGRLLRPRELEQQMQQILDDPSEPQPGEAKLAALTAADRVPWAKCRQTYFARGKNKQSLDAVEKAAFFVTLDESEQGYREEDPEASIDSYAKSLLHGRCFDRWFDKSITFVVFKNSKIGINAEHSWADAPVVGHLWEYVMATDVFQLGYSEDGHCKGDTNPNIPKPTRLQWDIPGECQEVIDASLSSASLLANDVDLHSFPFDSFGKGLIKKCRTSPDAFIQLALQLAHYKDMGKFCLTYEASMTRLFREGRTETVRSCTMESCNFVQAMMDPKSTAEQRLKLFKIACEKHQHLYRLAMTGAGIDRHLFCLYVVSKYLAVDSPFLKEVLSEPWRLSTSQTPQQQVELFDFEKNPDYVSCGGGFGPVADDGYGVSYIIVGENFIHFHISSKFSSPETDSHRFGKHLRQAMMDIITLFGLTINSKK

For `C[N+](C)(C)C[C@H](N)CC(=O)[O-]`, inhibition was half-maximal at 27300 nM (IC50).
Then `O=C(COc1ccccc1)N1CCCC[C@@H]1c1nc(-c2ccccn2)cs1`, with 130 nM.
For `COc1ccc(C)cc1S(=O)(=O)N1CCCc2ccc(C(=O)Nc3ccc(CC(=O)O)cc3)cc21` the value was 180 nM; for `COc1ccc(Cl)cc1S(=O)(=O)N1CC(C(=O)O)Oc2ccc(C(=O)Nc3cccc(F)c3)cc21` (configuration not stated), 30 nM.
Consider `COc1ccc(Cl)cc1S(=O)(=O)N1CCc2ccc(C(=O)Nc3ccc(C(=O)O)cc3)cc21`, for which the IC50 – broadly, the concentration needed to halve the response being measured – worked out at 55 nM.
For `O=C(NCc1cccs1)c1nn(Cc2cccc(C(F)(F)F)c2)c2ccccc12` the value was 150 nM.
For `CCCCCCCCCCCCCCNC(=O)N[C@H](CC(=O)[O-])C[N+](C)(C)C` [[3-Carboxy-2-(3-tetradecyl-ureido)-propyl]-trimethyl-ammonium] the value was 1450 nM.
